Tests used:
[1] = system: subjects with SWS brain involvement and refractory epilepsy; assay: Expanded access compassionate use program of CBD in Sturge Weber syndrome: seizure frequency and quality of life; type: in vivo, human; details: for Week 14 (number of seizures): CBD target dose 15-25 mg/kg/day; for Decrease in seizure frequency (%): week 14 versus baseline
Description: “Percentage decrease in seizure frequency” is defined as the number of seizures at week 14 minus the number of seizures at baseline divided by the number of seizures at baseline multiplied by 100.
Four subjects with SWS brain involvement and refractory epilepsy were enrolled in an expanded access compassionate use program for CBD. These subjects were treated with a highly purified extract of cannabidiol (CBD) obtained from a cannabis plant. Frequency of seizures was recorded at each visit, as were reported quality of life changes, including mood, behaviour, and cognitive function.
Data were compared in the 56-day pre-treatment period, the 56-day period after starting maintenance dose (Week 14), and at most recent visit.
The participants in the study were taking at the time of entry into the study between one and four concomitant AEDs.
Patient 1 was taking leviteracetam alone. Patient 2 was taking leviteracetam, valproate, felbamate and clobazam. Patient 3 was taking valproate and topiramate. Patient 4 was taking oxycarbamazepine and lacosamide.
CBD was administered at a target dose of 15-25 mg/kg/day.
All patients entered a baseline period of 14 weeks when parents/caregivers kept prospective seizure diaries, noting all countable seizure types.
Laboratory testing for hematologic, liver, kidney function and concomitant AED levels was performed at baseline, and after every 4 weeks of CBD therapy.

[2] = system: multiple species and models; details: previous studies in animals; cited from earlier work
Dravet syndrome = details: treatment of Dravet syndrome, announced March 2016; cited from earlier work
adult patients = details: 200 mg/day of pure CBD, four adult patients; cited from earlier work
[3] = system: adult patients with secondary generalized epilepsy; details: of eight adult patients with secondary generalized epilepsy; cited from earlier work
mice = details: after administration of pro-convulsant drugs or an electric current; cited from earlier work
[4] = system: institutionalized adult patients; details: 200 mg/day of pure CBD, twelve institutionalized adult patients, open label; cited from earlier work
[5] = in vivo; cited from earlier work

C=C(C)[C@@H]1CCC(C)=C[C@H]1c1c(O)cc(CCCCC)cc1O [CBD, Cannabidiol]
Week 14 (number of seizures) ([1]; Patient 1, concomitant leviteracetam alone, baseline 67 seizures): 60 number of seizures
Decrease in seizure frequency (%) ([1]; Patient 1, concomitant leviteracetam alone): 10%
Week 14 (number of seizures) ([1]; Patient 2, concomitant leviteracetam, valproate, felbamate and clobazam, baseline 6 seizures): 1 number of seizures
Decrease in seizure frequency (%) ([1]; Patient 2, concomitant leviteracetam, valproate, felbamate and clobazam): 83%
Week 14 (number of seizures) ([1]; Patient 3, concomitant valproate and topiramate, baseline 10 seizures): 1 number of seizures
Decrease in seizure frequency (%) ([1]; Patient 3, concomitant valproate and topiramate): 90%
Week 14 (number of seizures) ([1]; Patient 4, concomitant oxycarbamazepine and lacosamide, baseline 6 seizures): 4 number of seizures
Decrease in seizure frequency (%) ([1]; Patient 4, concomitant oxycarbamazepine and lacosamide): 33%
effectiveness in the treatment of SWS ([1]; conclusion from the four patients): effective
reported quality of life ([1]; patient 1): remained unchanged
reported quality of life ([1]; three of the four patients (patients 2, 3 and 4)): improved quality of life
cognitive function ([1]; three subjects (patients 2, 3 and 4)): improvements in cognitive function
share of patients who benefited from a reduction in the number of seizures ([1]; treatment-resistant SWS patients, four subjects): three quarters
mood and behaviour ([1]; two subjects (patient 2 and 3)): improvements in mood and behaviour
anticonvulsant efficacy [2]: anticonvulsant efficacy in multiple species and models
outcome of the Phase 3 study (Dravet syndrome): positive results
patients who became seizure free (adult patients): two of the four patients
seizure frequency in the remainder of the patients (adult patients): unchanged
number of patients with a marked reduction of seizures [3]: 4
prevention of seizures (mice): able to prevent seizures
control of seizures [4]: ineffective

CCCCCc1cc(O)c2c(c1)OC(C)(C)[C@@H]1CCC(C)=C[C@@H]21 [THC, Tetrahydrocannabinol]
effect on convulsions [5]: pro-convulsant

Reference: patent US10583096B2, “Use of cannabinoids in the treatment of epilepsy” (GW Research Limited, priority 2016, dated 2020)
